US8323656B2, “Antigen determinant of rheumatoid arthritis-specific autoantibody and use thereof” (priority 2007, dated 2012)

Test system: RA-specific antibodies (4 anti-CCP2-positive sera)
Assay: Indirect (inhibition) ELISA: cross-reactivity of analytes with RA-specific antibodies, immobilized CCP2 as capture antigen
Type: binding, human
Design: Cross-reactivity of antibodies with the named analyte: concentration or dose not given beside the values
Conditions: for Cross-reactivity (%) of RA-specific antibody, modified α-amino acid: alkylation + acetylation: acetylated amino acid methyl ester of the amino acid named; for Cross-reactivity (%) of RA-specific antibody, modified α-amino acid: alkylation + acetylation / Cross-reactivity (%) of RA-specific antibody, modified α-amino acid: acetylation / Cross-reactivity (%) of RA-specific antibody, modified α-amino acid: alkylation: 0 = less than 1%; for Cross-reactivity (%) of RA-specific antibody, modified α-amino acid: acetylation: acetylated derivative of the amino acid named; for Cross-reactivity (%) of RA-specific antibody, modified α-amino acid: alkylation: methyl esterified (Me) derivative of the amino acid named; for Cross-reactivity (%) of RA-specific antibody, α-amino acid: unmodified α-amino acid, 0 = cross-reactivity less than 1%; for Cross-reactivity of antibodies with the named analyte: the analyte itself is named
Description: A complete set of 21 amino acids and their derivatives were used as analytes to determine if any analyte inhibited the action of the detector antibody in binding to the capture antigen. Determination was made by observation at the single AA level through a series of moving windows of different derivatization. Following this procedure ensures that no antigenic elements of the epitope are missed as long as the possible AA derivatives are available. The analysis began in the fluid phase, wherein initially, the detector antibody was incubated with each of the analytes. After overnight incubation at 4° C., 100 μl of analyte preadsorbed detector antibody per well were added into 96-well microplate which immobilized CCP2 on the surface, and was incubated for 1 hour at room temperature with shaking. […] The reaction was stopped by adding 100 μl of 0.5 M H2SO4 per well and the results were estimated at A450 nm.
The concept of indirect ELISA was based upon an inhibition test between an unknown amount of analyte and a known amount of immobilized antigen for a limited number of detector antibody binding-sites. If the contents of detector antibody and immobilized antigen are kept constant, the distribution of detector antibody between immobilized antigen bound detector antibody and analyte bound detector antibody is dependent upon the amount of sample analyte. The mass of immobilized antigen bound detector antibody is inversely proportional to the amount of analyte bound detector antibody.
(§1) As described in FIG. 1, Amino Acid Profiles for the Antigenic Determinant, ELISA was carried out with sera from Euro-diagnostica (serum 1) and from three patients (serum 2, 3, and 4) with RA to CCP2 positive at various concentrations of different amino acids. […] The horizontal line at 100% represents the control percent binding of the CCP2 to the antibody.
as §1, with “2, Acetylamino” for “1, Amino”, “acetylamino” for “amino”
as §1, with “3, Alkylamino” for “1, Amino”, “alkylamino” for “amino”
as §1, with “4, Acetylamino” for “1, Amino”, “Acid Methyl Ester” for “Acid”, “acetylamino acid methyl esters.” for “amino acids.”

Inhibition of antibody binding to the immobilized CCP2 (FIG. 1 and 2, analyte at 50 mM, 4 sera, result in words)	SMILES	Cross-reactivity (%) of RA-specific antibody, modified α-amino acid: alkylation + acetylation	Cross-reactivity (%) of RA-specific antibody, modified α-amino acid: acetylation	Cross-reactivity (%) of RA-specific antibody, modified α-amino acid: alkylation	Cross-reactivity (%) of RA-specific antibody, α-amino acid	Cross-reactivity of antibodies with the named analyte
	C[C@H](N)C(=O)O [Alanine]	0%	0%	^Me0%	0%	
	COC(=O)[C@@H](N)CCCN=C(N)N [Arg-Me]					6%
	N=C(N)NCCC[C@H](N)C(=O)O [Arginine]	13%	6%	^Me5%	0%	zero
	NC(=O)C[C@H](N)C(=O)O [Asparagine]	0%	0%	^Me0%	0%	
	N[C@@H](CC(=O)O)C(=O)O [Aspartic acid]	0%	0%	^Me0%	0%	
	CCCCOC(=O)[C@@H](N)CCCNC(N)=O [Cit-Be]					124%
	CCOC(=O)C(N)CCCNC(N)=O (stereo not drawn) [Cit-Ee]					72%
	COC(=O)C(N)CCCNC(N)=O (stereo not drawn) [Cit-Me]					81%
	CCCOC(=O)C(N)CCCNC(N)=O (stereo not drawn) [Cit-Pe]					115%
	COC(=O)[C@@H](N)CS [Cys-Me]					48%
limited capability to inhibit	N[C@@H](CS)C(=O)O [Cysteine]	57%	48%	^Me50%	0%	0%
	N[C@@H](CCC(=O)O)C(=O)O [Glutamic acid]	0%	0%	^Me0%	0%	
	NC(=O)CC[C@H](N)C(=O)O [Glutamine]	0%	0%	^Me0%	0%	
	NCC(=O)O [Glycine]	0%	0%	^Me0%	0%	
	N[C@@H](Cc1c[nH]cn1)C(=O)O [Histidine]	0%	0%	^Me0%	0%	
	CC[C@H](C)[C@H](N)C(=O)O [Isoleucine]	0%	0%	^Me0%	0%	
	CC(C)C[C@H](N)C(=O)O [Leucine]	0%	0%	^Me0%	0%	
	NCCCC[C@H](N)C(=O)O [Lysine]	0%	0%	^Me0%	0%	
